# Data: patent publication US9732087B2, “Diamino-pyridine, pyrimidine, and pyridazine modulators of the histamine H4 receptor” (JANSSEN PHARMACEUTICA NV, priority 2008, dated 2017)
# Where a name gives a salt, the structure may show the parent alone.
# Molecular target: human H4 receptor (Homo sapiens (Human), UniProt Q9H3N8)
# Assay: Binding assay on recombinant human histamine H4 receptor ([3H]histamine competition, SK-N-MC cell membranes)
# Conditions: membranes harvested with 96 well Brandel system; [3H]histamine 10 nM; average of results; read-out: Brandel Ki
# Outline: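 Membranes from SK-N-MC cells stably or transiently transfected with human H4 receptor, prepared by homogenization and 30,000 g centrifugation in Tris/EDTA. Bound [3H]histamine separated by rapid filtration on PEI-treated GF/C filters, washed with ice-cold Tris/EDTA, counted by scintillation. '>' values denote highest concentration tested.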
row,SMILES,Ki
1,"CC(C)CNc1cc(N2CCNCC2)ccn1 [Example 19, N-(2-Methylpropyl)-4-piperazin-1-ylpyridin-2-amine dihydrochloride]",45.3 nM
2,"CC(C)CNc1cc(N2CCN(C)CC2)ccn1 [Example 21, 4-(4-Methylpiperazin-1-yl)-N-(2-methylpropyl)pyridin-2-amine]",51.4 nM

# Same assay, conditions: membranes harvested with cell harvester; [3H]histamine 10 nM; average of results; read-out: Cell Harvester Ki
row,SMILES,Ki
1,"CN[C@@H]1CCN(c2cnnc(NCCc3ccccc3)c2)C1 [Example 372, 5-[(3R)-3-(Methylamino)pyrrolidin-1-yl]-N-(2-phenylethyl)pyridazin-3-amine]",139 nM
2,"CNC1CN(c2cnnc(NCC(C)C)c2)C1 [Example 319, 5-[3-(Methylamino)azetidin-1-yl]-N-(2-methylpropyl)pyridazin-3-amine]",478 nM
3,"CN1CCN(c2ccnc(NC3CCC3)n2)CC1 [Example 54, N-Cyclobutyl-4-(4-methylpiperazin-1-yl)pyrimidin-2-amine]",87.9 nM
4,"CCCCNc1cc(N2CCNCC2)cnn1 [Example 356, N-Butyl-5-piperazin-1-ylpyridazin-3-amine]",1600 nM
5,"C[C@@H](Nc1nccc(N2C[C@H]3CCN[C@H]3C2)n1)c1ccccc1 [Example 141, 4-[(3aR,6aR)-Hexahydropyrrolo[3,4-b]pyrrol-5(1H)-yl]-N-[(1R)-1-phenylethyl]pyrimidin-2-amine]",2320 nM
6,"c1ccc(CNc2cc(N3CCNCC3)ccn2)cc1 [Example 18, N-Benzyl-4-piperazin-1-ylpyridin-2-amine dihydrochloride]",527 nM
7,"c1cc(N2C[C@H]3CCN[C@H]3C2)nc(NCC2CCCCC2)n1 [Example 107, N-(Cyclohexylmethyl)-4-[(3aR,6aR)-hexahydropyrrolo[3,4-b]pyrrol-5(1H)-yl]pyrimidin-2-amine]",69.9 nM
8,"c1cc(N2CCNCC2)cc(NCC2CCCC2)n1 [Example 311, N-(Cyclopentylmethyl)-4-piperazin-1-ylpyridin-2-amine]",226 nM
9,"COCCNc1cc(N2CCN(C)CC2)cnn1 [Example 405, N-(2-Methoxyethyl)-5-(4-methylpiperazin-1-yl)pyridazin-3-amine]",> 10000 nM
10,"COCCNc1cc(N2CCN(C)CC2)ccn1 [Example 239, N-(2-Methoxyethyl)-4-(4-methylpiperazin-1-yl)pyridin-2-amine]",701 nM
11,"CN[C@H]1CCN(c2ccnc(NC34CC5CC(CC(C5)C3)C4)c2)C1 [Example 210, Adamantan-1-yl-[4-(3S)-(3-methylamino-pyrrolidin-1-yl)-pyridin-2-yl]-amine]",296 nM
12,"CN1CCN(c2ccnc(NC3CCCC3)n2)CC1 [Example 48, N-Cyclopentyl-4-(4-methylpiperazin-1-yl)pyrimidin-2-amine]",26.7 nM
13,"CN1CCN(c2ccnc(NCC(C)(C)O)c2)CC1 [Example 241, 2-Methyl-1-{[4-(4-methylpiperazin-1-yl)pyridin-2-yl]amino}propan-2-ol]",837 nM
14,"CN[C@H]1CCN(c2ccnc(N[C@H]3C[C@H]4CC[C@]3(C)C4(C)C)c2)C1 [Example 206, 4-[(3S)-3-(Methylamino)pyrrolidin-1-yl]-N-[(1R,2S,4R)-1,7,7-trimethylbicyclo[2.2.1]hept-2-yl]pyridin-2-amine]",44.9 nM
15,"CN1CCN(c2ccnc(NC3CCOCC3)c2)CC1 [Example 223, 4-(4-Methylpiperazin-1-yl)-N-(tetrahydro-2H-pyran-4-yl)pyridin-2-amine]",723 nM
16,"CN[C@@H]1CCN(c2ccnc(N[C@@H]3CCOC3)c2)C1 [Example 5, 4-[(3R)-3-(Methylamino)pyrrolidin-1-yl]-N-[(3R)-tetrahydrofuran-3-yl]pyridin-2-amine dihydrochloride]",8.9 nM
17,"c1ccc(CCNc2cc(N3CCNCC3)cnn2)cc1 [Example 362, N-(2-Phenylethyl)-5-piperazin-1-ylpyridazin-3-amine]",2210 nM
18,"CN[C@@H]1CCN(c2cnnc(NCCCO)c2)C1 [Example 390, 3-({5-[(3R)-3-(Methylamino)pyrrolidin-1-yl]pyridazin-3-yl}amino)propan-1-ol]",> 10000 nM
19,"c1nnc(NC2CC2)cc1N1CCNCC1 [Example 315, N-Cyclopropyl-5-piperazin-1-ylpyridazin-3-amine]",1920 nM

# Results, then the compound that gave them:
row,Ki,SMILES
1,13.7 nM,"CNC1CN(c2ccnc(NC3CCCC3)n2)C1 [Example 172, N-Cyolopentyl-4-[3-(methylamino)azetidin-1-yl]pyrimidin-2-amine]"
2,> 10000 nM,"CC(C)(C)CNc1cc(N2CC(N)C2)cnn1 [Example 323, 5-(3-Aminoazetidin-1-yl)-N-(2,2-dimethylpropyl)pyridazin-3-amine]"
3,0.9 nM,"CN[C@@H]1CCN(c2ccnc(Nc3ccccc3)c2)C1 [Example 33, 4-[(3R)-3-(Methylamino)pyrrolidin-1-yl]-N-phenylpyridin-2-amine]"
4,247 nM,"N[C@H]1CCN(c2ccnc(NC3CCCC3)c2)C1 [Example 268, 4-[(3S)-3-Aminopyrrolidin-1-yl]-N-cyclopentylpyridin-2-amine]"
5,732 nM,"CN1CCN(c2ccnc(NCc3ccccc3)n2)CC1 [Example 165, N-Benzyl-4-(4-methylpiperazin-1-yl)pyrimidin-2-amine]"
6,243 nM,"CNC1CN(c2ccnc(NCc3ccc(F)cc3)n2)C1 [Example 178, N-(4-Fluorobenzyl)-4-[3-(methylamino)azetidin-1-yl]pyrimidin-2-amine]"
7,> 10000 nM,"N[C@H]1CCN(c2ccnc(NCc3ccccn3)n2)C1 [Example 118, 4-[(3S)-3-Aminopyrrolidin-1-yl]-N-(pyridin-2-ylmethyl)pyrimidin-2-amine]"
8,15.6 nM,"CN[C@@H]1CCN(c2ccnc(NCCc3ccccc3)n2)C1 [Example 183, 4-[(3R)-3-(Methylamino)pyrrolidin-1-yl]-N-(2-phenylethyl)pyrimidin-2-amine]"
9,3.53 nM,"N[C@@H]1CCN(c2ccnc(NC3CC4CCC3C4)c2)C1 (stereo partly drawn) [Example 270, 4-[(3R)-3-Aminopyrrolidin-1-yl]-N-bicyclo[2.2.1]hept-2-ylpyridin-2-amine]"
10,342 nM,"COCCNc1nccc(N2CCN(C)CC2)n1 [Example 60, N-(2-Methoxyethyl)-4-(4-methylpiperazin-1-yl)pyrimidin-2-amine]"
11,290 nM,"N[C@@H]1CCN(c2cnnc(NC3CCCC3)c2)C1 [Example 368, 5-[(3R)-3-Aminopyrrolidin-1-yl]-N-cyclopentylpyridazin-3-amine]"
12,820 nM,"c1ccc(CNc2nccc(N3CCNCC3)n2)cc1 [Example 131, N-Benzyl-4-piperazin-1-ylpyrimidin-2-amine]"
13,33.4 nM,"CC(C)Nc1nccc(N2CC[C@@H](N)C2)n1 [Example 52, 4-[(3R)-3-Aminopyrrolidin-1-yl]-N-(1-methylethyl)pyrimidin-2-amine]"
14,9.67 nM,"CN[C@@H]1CCN(c2ccnc(NCC(C)(C)CO)n2)C1 [Example 169, 2,2-Dimethyl-3-({4-[(3R)-3-(methylamino)pyrrolidin-1-yl]pyrimidin-2-yl}amino)propan-1-ol]"
15,1.68 nM,"CN[C@@H]1CCN(c2ccnc(N[C@H]3C[C@H]4CC[C@]3(C)C4(C)C)n2)C1 [Example 190, 4-[(3R)-3-(Methylamino)pyrrolidin-1-yl]-N-[(1R,2S,4R)-1,7,7-trimethylbicyclo[2.2.1]hept-2-yl]pyrimidin-2-amine]"
16,483 nM,"C[C@@H]1[C@@H](Nc2nccc(N3CCN(C)CC3)n2)C[C@H]2C[C@@H]1C2(C)C [Example 168, 4-(4-Methylpiperazin-1-yl)-N-[(1S,2S,3S,5R)-2,6,6-trimethylbicyclo[3.1.1]hept-3-yl]pyrimidin-2-amine]"
17,> 10000 nM,"COc1ccc(CNc2cc(N3CC[C@@H](N)C3)cnn2)cc1 [Example 341, 5-[(3R)-3-Aminopyrrolidin-1-yl]-N-(4-methoxybenzyl)pyridazin-3-amine]"
18,140 nM,"N[C@@H]1CCN(c2ccnc(NCc3ccc(F)cc3)n2)C1 [Example 57, 4-[(3R)-3-Aminopyrrolidin-1-yl]-N-(4-fluorobenzyl)pyrimidin-2-amine]"
19,196 nM,"CN[C@@H]1CCN(c2ccnc(NCc3ccccn3)n2)C1 [Example 83, [4-(3R)-(3-Methylamino-pyrrolidin-1-yl)-pyrimidin-2-yl]-pyridin-2-ylmethyl-amine]"
20,8.4 nM,"CCCCNc1nccc(N2CC[C@@H](N)C2)n1 [Example 46, 4-[(3R)-3-Aminopyrrolidin-1-yl]-N-butylpyrimidin-2-amine]"
21,310 nM,"NC1CCN(c2cnnc(NCC3CC4CCC3C4)c2)C1 (stereo in doubt) [Example 304, 5-[(3S)-3-Aminopyrrolidin-1-yl]-N-(bicyclo[2.2.1]hept-2-ylmethyl)pyridazin-3-amine]"
22,837 nM,"CC(C)(O)CNc1nccc(N2CC[C@H](N)C2)n1 [Example 110, 1-({4-[(3S)-3-Aminopyrrolidin-1-yl]pyrimidin-2-yl}amino)-2-methylpropan-2-ol]"
23,2300 nM,"N[C@H]1CCN(c2ccnc(NCc3ccc(F)cc3)n2)C1 [Example 199, 4-[(3S)-3-Aminopyrrolidin-1-yl]-N-(4-fluorobenzyl)pyrimidin-2-amine]"
24,2.04 nM,"N[C@@H]1CCN(c2ccnc(NCC3CCCC3)n2)C1 [Example 123, 4-[(3R)-3-Aminopyrrolidin-1-yl]-N-(cyclopentylmethyl)pyrimidin-2-amine]"
25,58.5 nM,"N[C@@H]1CCN(c2ccnc(N[C@@H]3CCOC3)n2)C1 [Example 29, 4-[(3R)-3-Aminopyrrolidin-1-yl]-N-[(3R)-tetrahydrofuran-3-yl]pyrimidine-2-amine]"
26,930 nM,"N[C@H]1CCN(c2cnnc(NCC3CCCC3)c2)C1 [Example 317, 5-[(3S)-3-Aminopyrrolidin-1-yl]-N-(cyclopentylmethyl)pyridazin-3-amine]"
27,27.5 nM,"CCCCNc1cc(N2CC[C@@H](N)C2)ccn1 [Example 254, 4-[(3R)-3-Aminopyrrolidin-1-yl]-N-butylpyridin-2-amine]"
28,129 nM,"c1cc(N2CCNCC2)nc(NC2CC3CCC2C3)n1 (stereo not shown) [Example 133, N-Bicyclo[2.2.1]hept-2-yl-4-piperazin-1-ylpyrimidin-2-amine]"
